Experiment [1] concerns the target T1, dipeptidyl peptidase IV from porcine kidney (Sus scrofa, UniProt P22411).
T1 construct: dipeptidyl peptidase IV from porcine kidney with a specific activity against glycylprolyl-4-nitroaniline of 37.5 U/mg; from tissue; host or cells: porcine kidney
Briefly: Ki determination, DPIV inhibition (inhibitor released from prodrug by APN). It counts as biochemical. As to conditions: for Ki: porcine kidney DPIV, substrate Gly-Pro-pNA, APN added to release inhibitor, HEPES pH7.6; for T1/2 (half-life, from enzyme activity versus reaction time): same assay as Ki, unstable competitive inhibitor. How it is done: 500 μl test compound in a concentration range of 1*10^−5 M-1*10^−11M were admixed with and 500 μl HEPES buffer (40 mM, pH7.6; ion strength=0.125) and 20 μl of diluted DPIV. Release of the inhibitor from the prodrug as well the monitoring reaction (DPIV-catalyzed hydrolysis of Gly-Pro-pNA) were started by addition of a mixture of 10 μl of APN stock solution (4.9 mg/ml, Sigma, Taufkirchen, Germany) with 250 μl of the substrate (Gly-Pro-pNA, 0.05-4 mM). Development of yellow color due to 4-nitroaniline release were monitored at λ=405 nm for up to 180 min using UV1 Spectrometer (ThermoSpectronic).
The Ki-values were calculated by fitting the first derivative of the time-progress curves using Graphit (v.4.0.13, Erithacus Software, Ltd, UK) and an equation for an unstable competitive inhibitor.
The half-life (t1/2) was calculated by plotting the enzyme activity versus reaction time.

For another experiment, the target named is porcine DPIV (Sus scrofa, UniProt P22411). Description: Determination of IC50 values against DPIV. It counts as biochemical. As to conditions: Gly-Pro-pNA 0.4 mM, APN, 30° C. On the procedure: 100 μl inhibitor stock solution was mixed with 100 μl buffer (HEPES pH7.6) and 20 μl diluted porcine DPIV and preincubated at 30° C. Reaction was started by addition of a mixture of 50 μl substrate (Gly-Pro-pNA, final concentration 0.4 mM) and 2 μl APN stock solution. Formation of the product pNA was measured at 405 nm and 30° C. over 10 min using the HTS 7000Plus plate reader (Perkin Elmer) and slopes were calculated. The final inhibitor concentrations ranged between 1 mM and 30 nM. For calculation of IC50 GraFit 4.0.13 (Erithacus Software) was used.

In a further experiment the test system is Wistar rats. Briefly: Glucose tolerance (OGTT) in Wistar rats under identical experimental conditions. The format is in vivo. As to conditions: 100 mg/kg b.w. oral.

Structures can show the parent of a compound that is named as a salt. Where two headings read alike, the source gives them in different places. Where only a bound is given, the exact number is not on record here.

The record followed here is patent publication US7608577B2, “Peptidyl ketones as inhibitors of DPIV” (OSI Pharmaceuticals, Inc., priority 2001, dated 2009).

As a reminder, the Ki is a measure of affinity in units of concentration, obtained from inhibition or displacement. The term IC50 denotes the concentration that gives 50% inhibition.

Sequence of porcine DPIV (P22411 whole entry): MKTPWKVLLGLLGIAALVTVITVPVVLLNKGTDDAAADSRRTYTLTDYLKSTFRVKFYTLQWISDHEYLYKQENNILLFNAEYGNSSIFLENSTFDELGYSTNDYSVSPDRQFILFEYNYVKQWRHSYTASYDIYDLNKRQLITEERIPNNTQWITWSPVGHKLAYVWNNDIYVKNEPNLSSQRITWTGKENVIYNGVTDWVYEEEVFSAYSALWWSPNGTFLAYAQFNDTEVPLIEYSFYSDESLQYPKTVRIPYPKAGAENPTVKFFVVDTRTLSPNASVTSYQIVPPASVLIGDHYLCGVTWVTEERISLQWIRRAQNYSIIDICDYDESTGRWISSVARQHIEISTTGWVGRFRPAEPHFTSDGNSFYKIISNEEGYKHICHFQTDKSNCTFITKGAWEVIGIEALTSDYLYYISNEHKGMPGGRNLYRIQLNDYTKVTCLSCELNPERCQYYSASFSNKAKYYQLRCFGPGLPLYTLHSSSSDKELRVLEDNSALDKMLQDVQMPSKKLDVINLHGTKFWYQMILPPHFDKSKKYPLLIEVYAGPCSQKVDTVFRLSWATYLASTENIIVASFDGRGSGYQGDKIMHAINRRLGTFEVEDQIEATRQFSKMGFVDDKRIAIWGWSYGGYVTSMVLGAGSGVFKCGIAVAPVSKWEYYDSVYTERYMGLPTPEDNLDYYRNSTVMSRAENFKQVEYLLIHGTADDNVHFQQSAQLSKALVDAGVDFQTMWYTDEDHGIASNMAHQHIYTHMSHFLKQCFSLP
T1 sequence (P22411 whole entry): as above

Take `CC(C)[C@H](NC(=O)[C@H](C)N)C(=O)N1CCC[C@H]1C(=O)CSCc1c(Cl)cccc1Cl` [2-{[(2,6-Dichlorobenzyl)thiomethyl]carbonyl}-1-N-[{(L)-Alanyl}-(L)-Valinyl]-(2S)-pyrrolidine]: the inhibitory constant (Ki) in experiment [1] (read-out: Ki) was less than 0.1 µM. Also, the half-maximal inhibitory concentration (IC50) at porcine DPIV (HEPES pH7.6, read-out: IC50) amounted to 79.7 µM.
`CC(C)[C@H](NC(=O)[C@H](C)N)C(=O)N1CCC[C@H]1C(=O)c1ccccn1` [H-Ala Val-Pro-CO-(2-Pyridinyl)*TFA, 2-[(Pyridin-2-yl)carbonyl]-1-N-[{(L)-Alanyl}-(L)-Valinyl]-(2S)-pyrrolidine trifluoroacetate]: at porcine DPIV (HEPES pH7.6, read-out: IC50), the half-maximal inhibitory concentration (IC50) is 1100 µM.
`C[C@H](N)C(=O)NCC(=O)N1CCC[C@H]1C(=O)c1nc2ccccc2s1.O=C(O)C(F)(F)F` [H-Ala-Gly-Pro-CO-Benzothiazole*TFA, 2-[(Benzothiazol-2-yl)carbonyl]-1-N-[{(L)-Alanyl}-Glycyl]-(2S)-pyrrolidine trifluoroacetate]: in experiment [1] (read-out: Ki), the inhibition constant Ki is 0.107 µM. Further, the “T1/2 (half-life, from enzyme activity versus reaction time)” value in experiment [1] is given as 5.1 min.
The corresponding values for `CC(C)[C@H](NC(=O)[C@H](C)N)C(=O)N1CCC[C@H]1C(=O)c1nc2ccccc2s1.O=C(O)C(F)(F)F` [H-Ala-Val-Pro-CO-Benzothiazole*TFA, 2-[(Benzothiazol-2-yl)carbonyl]-1-N-[{(L)-Alanyl}-(L)-Valinyl]-(2S)-pyrrolidine trifluoroacetate] are 0.0373 µM and 17.0 min.
For the molecule `CC(C)[C@H](NC(=O)[C@H](C)N)C(=O)N1CCC[C@H]1C(=O)c1nccs1.O=C(O)C(F)(F)F` [H-Ala-Val-Pro-CO-Thiazole*TFA, 2-[([1,3]-Thiazol-2-yl)carbonyl]-1-N-[{(L)-Alanyl}-(L)-Valinyl]-(2S)-pyrrolidine trifluoroacetate], the inhibitory constant (Ki) in experiment [1] (read-out: Ki) came to 0.0332 µM. Further, the “T1/2 (half-life, from enzyme activity versus reaction time)” value in experiment [1] is reported as 15.1 min. Also, the half-maximal inhibitory concentration (IC50) result on porcine DPIV (HEPES pH7.6) was “no inhibition”.
Turning to `Br.CC(C)[C@H](NC(=O)CN)C(=O)N1CCC[C@H]1C(=O)COC(=O)c1ccccc1` [H-Gly-Val-Pro-CO—CH2O—CO—Ph*HBr, 2-[(Benzoyloxy-methyl)carbonyl]-1-N-[Glycyl-(L)-Valinyl]-(2S)-pyrrolidine hydrobromide], the Ki result in experiment [1] is “no inhibition”. Further, the IC50 on porcine DPIV (HEPES pH7.6, read-out: IC50) came to 4.94 µM.
Molecule `Br.CC(=O)[C@@H]1CCCN1C(=O)[C@@H](NC(=O)[C@@H]1CCCN1C(=O)[C@@H](N)C(C)C)C(C)C` [H-Val-Pro-Val-Pro-Me*HBr, 2-Methylcarbonyl-1-N-[(L)-Valinyl-(L)-Prolyl-(L)-Valinyl]-(2S)-pyrrolidine hydrobromide] came in with an AUC test compound in the experiment with Wistar rats of 66.4 mmol·min/L. For the same molecule, in the experiment with Wistar rats (vs AUC control), the Improvement is reported as 44.1%.
